Experimental data reported in patent US11780893B2, “Kv1.3 blockers” (Zealand Pharma A/S, priority 2019, dated 2023).
Where two headings read alike, the source gives them in different places. Bridge positions count the residues as written; N and C are the ends. Square brackets hold non-standard residues; d marks the D form. Peptide text beside a SMILES is read from it. Nle = CCCC[C@H](N)C(=O)O

Columns and labels:
[1] = biological target: T1, human Kv1.3 voltage-gated K+ channel (Homo sapiens, UniProt P22001); experiment: cell-based
T1 construct: host or cells: CHO-DUKX

Kv1.1 = biological target: T2, Kv1.1 (Homo sapiens, UniProt Q09470); experiment: cell-based; settings: for Selectivity Kv1.1/Kv1.3: ratio IC50[Kv1.1]/IC50[Kv1.3]
T2 construct: expressed in transfected cells; host or cells: Chinese Hamster Ovary (CHO)

Kv1.2 = biological target: T3, Kv1.2 (Homo sapiens, UniProt P16389); experiment: cell-based
T3 construct: expressed in transfected cells; host or cells: Chinese Hamster Ovary (CHO)

Kv1.3 = biological target: T4, Kv1.3 (Homo sapiens, UniProt P22001); experiment: cell-based
T4 construct: expressed in transfected cells; host or cells: Chinese Hamster Ovary (CHO)

Kv1.6 = biological target: T5, Kv1.6 (Homo sapiens, UniProt P17658); experiment: cell-based; settings: for Selectivity Kv1.6/Kv1.3: ratio IC50[Kv1.6]/IC50[Kv1.3]
T5 construct: expressed in transfected cells; host or cells: Chinese Hamster Ovary (CHO)

Rat whole blood = Rat whole blood (Rattus norvegicus, UniProt P15384)
[2] = inhibition of thallium flux, CHO-DUKX cells with human Kv1.3, read-out: IC50
[3] = CHO cells, whole-cell patch clamp, read-out: Potency IC50 (nM) Kv1.1
[4] = CHO cells, whole-cell patch clamp, read-out: Potency IC50 (nM) Kv1.2
[5] = CHO cells, whole-cell patch clamp, read-out: Potency IC50 (nM) Kv1.3
[6] = CHO cells, whole-cell patch clamp, read-out: Potency IC50 (nM) Kv1.6

T2 sequence (Q09470 whole entry): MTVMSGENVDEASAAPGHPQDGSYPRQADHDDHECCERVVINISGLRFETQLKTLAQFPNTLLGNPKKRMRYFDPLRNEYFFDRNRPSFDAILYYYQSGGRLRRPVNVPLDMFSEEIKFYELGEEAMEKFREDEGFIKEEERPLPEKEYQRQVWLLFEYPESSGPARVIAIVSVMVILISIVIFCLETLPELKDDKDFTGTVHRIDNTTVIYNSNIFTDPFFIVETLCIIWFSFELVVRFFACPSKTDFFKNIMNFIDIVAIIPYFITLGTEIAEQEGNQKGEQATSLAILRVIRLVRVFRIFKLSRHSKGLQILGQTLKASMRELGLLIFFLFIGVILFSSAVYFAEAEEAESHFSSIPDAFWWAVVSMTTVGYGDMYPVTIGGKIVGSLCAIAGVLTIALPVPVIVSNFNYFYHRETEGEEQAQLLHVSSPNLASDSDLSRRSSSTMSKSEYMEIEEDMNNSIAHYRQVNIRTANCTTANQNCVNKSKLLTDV
T4 sequence (P22001 whole entry): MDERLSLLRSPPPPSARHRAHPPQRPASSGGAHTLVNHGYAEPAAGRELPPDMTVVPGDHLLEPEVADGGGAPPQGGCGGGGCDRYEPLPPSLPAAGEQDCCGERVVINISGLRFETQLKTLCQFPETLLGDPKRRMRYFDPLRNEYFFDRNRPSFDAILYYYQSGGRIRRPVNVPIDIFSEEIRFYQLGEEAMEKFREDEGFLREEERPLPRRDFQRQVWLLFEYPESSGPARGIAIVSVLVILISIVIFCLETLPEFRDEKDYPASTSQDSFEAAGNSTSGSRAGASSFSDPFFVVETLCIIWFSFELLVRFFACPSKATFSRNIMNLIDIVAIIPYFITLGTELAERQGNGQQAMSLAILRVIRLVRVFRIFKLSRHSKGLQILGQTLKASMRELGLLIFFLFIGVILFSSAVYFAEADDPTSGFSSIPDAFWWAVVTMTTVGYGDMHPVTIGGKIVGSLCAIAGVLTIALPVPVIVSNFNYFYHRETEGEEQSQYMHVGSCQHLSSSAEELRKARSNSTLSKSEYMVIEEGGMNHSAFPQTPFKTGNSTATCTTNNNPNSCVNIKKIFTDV
T1 sequence (P22001 whole entry): as above
T3 sequence (P16389 whole entry): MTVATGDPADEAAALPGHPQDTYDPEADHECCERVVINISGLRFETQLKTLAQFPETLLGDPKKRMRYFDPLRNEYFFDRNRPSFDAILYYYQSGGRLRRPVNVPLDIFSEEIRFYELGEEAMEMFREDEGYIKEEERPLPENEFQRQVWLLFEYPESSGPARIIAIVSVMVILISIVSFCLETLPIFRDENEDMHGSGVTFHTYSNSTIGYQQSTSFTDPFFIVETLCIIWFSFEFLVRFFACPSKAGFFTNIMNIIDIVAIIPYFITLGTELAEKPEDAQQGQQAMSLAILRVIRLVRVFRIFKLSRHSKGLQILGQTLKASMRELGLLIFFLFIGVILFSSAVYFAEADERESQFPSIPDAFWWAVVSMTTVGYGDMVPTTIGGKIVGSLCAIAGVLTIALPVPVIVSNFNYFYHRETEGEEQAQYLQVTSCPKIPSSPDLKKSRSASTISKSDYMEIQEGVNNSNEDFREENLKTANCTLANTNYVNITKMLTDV
T5 sequence (P17658 whole entry): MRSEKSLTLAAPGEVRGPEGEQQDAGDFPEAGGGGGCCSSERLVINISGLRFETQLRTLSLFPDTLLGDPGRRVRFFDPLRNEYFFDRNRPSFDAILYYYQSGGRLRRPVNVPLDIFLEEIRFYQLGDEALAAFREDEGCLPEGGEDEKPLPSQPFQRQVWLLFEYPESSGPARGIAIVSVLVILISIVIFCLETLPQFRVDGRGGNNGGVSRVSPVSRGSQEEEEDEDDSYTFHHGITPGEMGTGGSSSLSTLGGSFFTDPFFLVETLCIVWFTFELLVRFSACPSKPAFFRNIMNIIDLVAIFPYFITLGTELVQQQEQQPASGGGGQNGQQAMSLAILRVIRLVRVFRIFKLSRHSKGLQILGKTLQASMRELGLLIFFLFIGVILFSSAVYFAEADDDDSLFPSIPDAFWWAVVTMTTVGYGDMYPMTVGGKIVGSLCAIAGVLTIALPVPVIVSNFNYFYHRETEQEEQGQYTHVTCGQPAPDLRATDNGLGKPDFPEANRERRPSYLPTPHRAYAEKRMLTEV
Chain of Rat whole blood (P15384 whole entry): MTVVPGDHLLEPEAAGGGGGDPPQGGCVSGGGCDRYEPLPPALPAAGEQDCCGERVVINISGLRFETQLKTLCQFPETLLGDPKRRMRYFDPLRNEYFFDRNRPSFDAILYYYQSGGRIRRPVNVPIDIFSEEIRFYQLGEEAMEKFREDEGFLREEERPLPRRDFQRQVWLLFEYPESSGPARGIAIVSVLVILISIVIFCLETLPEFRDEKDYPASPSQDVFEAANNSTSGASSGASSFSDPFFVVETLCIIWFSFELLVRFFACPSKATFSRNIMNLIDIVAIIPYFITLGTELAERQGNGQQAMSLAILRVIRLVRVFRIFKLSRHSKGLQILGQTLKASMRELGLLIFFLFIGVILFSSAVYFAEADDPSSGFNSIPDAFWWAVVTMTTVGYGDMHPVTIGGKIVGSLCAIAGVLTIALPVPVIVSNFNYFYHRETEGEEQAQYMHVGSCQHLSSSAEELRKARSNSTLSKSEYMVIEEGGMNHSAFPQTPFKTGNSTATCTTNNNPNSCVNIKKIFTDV

| Structure (SMILES) | IC50 [1, 2] [nM] | IC50 (Kv1.1; [3]) [nM] | Selectivity Kv1.1/Kv1.3 (Kv1.1) | IC50 (Kv1.2; [4]) [nM] | IC50 (Kv1.3; [5]) [nM] | IC50 (Kv1.6; [6]) [nM] | IC50 (Rat whole blood) [nM] | Selectivity Kv1.6/Kv1.3 (Kv1.6) | IC50 [1] [nM] | IC50 (Kv1.1) [nM] | IC50 (Kv1.2) [nM] | IC50 (Kv1.3) [nM] | IC50 (Kv1.6) [nM] | Selectivity Kv1.2/Kv1.3 (Kv1.2; ratio IC50[Kv1.2]/IC50[Kv1.3]) |
| --- | --- | --- | --- | --- | --- | --- | --- | --- | --- | --- | --- | --- | --- | --- |
| CC[C@H](C)[C@@H]1NC(=O)[C@H](C)NC(=O)[C@H](CCCCN)NC(=O)[C@H](CCCCN)NC(=O)[C@@H]2CSSC[C@@H](C(=O)N[C@@H](Cc3ccc(O)cc3)C(=O)N3CCC[C@H]3C(=O)N[C@@H](CCCNC(=N)N)C(N)=O)NC(=O)[C@H](CCCCN)NC(=O)[C@@H]3CSSC[C@H](NC(=O)[C@H](CCC(=O)O)NC(=O)[C@H](C(C)C)NC(=O)[C@H](CO)NC(=O)[C@H](C)NC(=O)[C@H](CO)NC(=O)[C@@H](NC(=O)[C@H](CCCNC(=N)N)NC(=O)[C@H](CCSC)NC(=O)[C@H](CC(=O)O)NC(=O)[C@H](CCSC)NC(=O)[C@@H](N)CC(N)=O)CSSC[C@H](NC(=O)[C@H](CCCCN)NC(=O)CNC(=O)[C@H](Cc4ccccc4)NC(=O)[C@H]([C@@H](C)CC)NC(=O)[C@H](CO)NC(=O)CNC1=O)C(=O)N[C@@H](CCSC)C(=O)N[C@@H](CC(N)=O)C(=O)N[C@@H](CCCCN)C(=O)N[C@@H](CCCCN)C(=O)N3)C(=O)N[C@@H](CCCCN)C(=O)N[C@@H](CCC(N)=O)C(=O)N[C@@H](CCCCN)C(=O)N2 [Compound 19] (H-NMDMRCSASVECKQKCKKAIGSIFGKCMNKKCKCYPR-NH2; disulfide 6-27, 12-32, 16-34) | 0.12 | > 3000 | >13500 | 45 | 0.22 | 435 | ≤ 1 | – | – | – | – | – | – | – |
| CC[C@H](C)[C@@H]1NC(=O)[C@H](CCCNC(=N)N)NC(=O)[C@H](CCCCN)NC(=O)[C@H](CC(C)C)NC(=O)[C@@H]2CSSC[C@@H](C(=O)N[C@@H](Cc3ccc(O)cc3)C(=O)N3CCC[C@H]3C(=O)N[C@@H](CCCNC(=N)N)C(N)=O)NC(=O)[C@H](CCCCN)NC(=O)[C@@H]3CSSC[C@H](NC(=O)[C@H](CCC(=O)O)NC(=O)[C@H](C(C)C)NC(=O)[C@H](CO)NC(=O)[C@H](C)NC(=O)[C@H](CO)NC(=O)[C@@H](NC(=O)[C@H](CCCNC(=N)N)NC(=O)[C@H](CCSC)NC(=O)[C@H](CC(=O)O)NC(=O)[C@H](CCSC)NC(=O)[C@@H](N)CC(N)=O)CSSC[C@H](NC(=O)[C@H](CCCCN)NC(=O)CNC(=O)[C@H](Cc4ccccc4)NC(=O)[C@H]([C@@H](C)CC)NC(=O)[C@H](CO)NC(=O)CNC1=O)C(=O)N[C@@H](CCSC)C(=O)N[C@@H](CC(N)=O)C(=O)N[C@@H](CCCCN)C(=O)N[C@@H](CCCCN)C(=O)N3)C(=O)N[C@@H](CCCCN)C(=O)N[C@@H](CCC(N)=O)C(=O)N[C@@H](CCCCN)C(=O)N2 [Compound 56] (H-NMDMRCSASVECKQKCLKRIGSIFGKCMNKKCKCYPR-NH2; disulfide 6-27, 12-32, 16-34) | 0.087 | > 3000 | >9900 | 57 | 0.3 | 932 | – | – | – | – | – | – | – | – |
| CC[C@H](C)[C@@H]1NC(=O)[C@H](CO)NC(=O)CNC(=O)[C@H](Cc2ccc(O)cc2)NC(=O)[C@H](C)NC(=O)[C@H](CCCCN)NC(=O)[C@H](CC(C)C)NC(=O)[C@@H]2CSSC[C@@H](C(=O)N[C@@H](Cc3ccc(O)cc3)C(=O)N3CCC[C@H]3C(=O)N[C@@H](CCCNC(=N)N)C(N)=O)NC(=O)[C@H](CCCCN)NC(=O)[C@@H]3CSSC[C@H](NC(=O)[C@H](CCC(=O)O)NC(=O)[C@H](C(C)C)NC(=O)[C@H](CO)NC(=O)[C@H](C)NC(=O)[C@H](CO)NC(=O)[C@@H](NC(=O)[C@H](CCCNC(=N)N)NC(=O)[C@H](CCSC)NC(=O)[C@H](CC(=O)O)NC(=O)[C@H](CCSC)NC(=O)[C@@H](N)CC(N)=O)CSSC[C@H](NC(=O)[C@H](CCCCN)NC(=O)CNC(=O)[C@H](Cc4ccccc4)NC1=O)C(=O)N[C@@H](CCSC)C(=O)N[C@@H](CC(N)=O)C(=O)N[C@@H](CCCCN)C(=O)N[C@@H](CCCCN)C(=O)N3)C(=O)N[C@@H](CCCCN)C(=O)N[C@@H](CCC(N)=O)C(=O)N[C@@H](CCCCN)C(=O)N2 [Compound 58] (H-NMDMRCSASVECKQKCLKAYGSIFGKCMNKKCKCYPR-NH2; disulfide 6-27, 12-32, 16-34) | 0.11 | > 3000 | >8800 | 145 | 0.34 | > 3000 | – | >8800 | – | – | – | – | – | – |
| CCCC[C@H](NC(=O)[C@H](CC(=O)O)NC(=O)[C@H](CCCC)NC(=O)[C@@H](N)CO)C(=O)N[C@@H](CCCNC(=N)N)C(=O)N[C@H]1CSSC[C@@H]2NC(=O)[C@H](CCCCN)NC(=O)CNC(=O)[C@H](Cc3ccccc3)NC(=O)[C@H]([C@@H](C)CC)NC(=O)[C@H](CO)NC(=O)CNC(=O)[C@H]([C@@H](C)CC)NC(=O)[C@H](C)NC(=O)[C@H](CCCCN)NC(=O)[C@H](CC(C)C)NC(=O)[C@@H]3CSSC[C@@H](C(=O)N[C@@H](Cc4ccc(O)cc4)C(=O)N4CCC[C@H]4C(=O)N[C@@H](CCCNC(=N)N)C(N)=O)NC(=O)[C@H](CCCCN)NC(=O)[C@H](CSSC[C@H](NC(=O)[C@H](CCC(=O)O)NC(=O)[C@H](C(C)C)NC(=O)[C@H](CO)NC(=O)[C@H](C)NC(=O)[C@H](CO)NC1=O)C(=O)N[C@@H](C)C(=O)N[C@@H](CCC(N)=O)C(=O)N[C@@H](CO)C(=O)N3)NC(=O)[C@H](CCCCN)NC(=O)[C@H](CCCCN)NC(=O)[C@H](CC(N)=O)NC(=O)[C@H](CCSC)NC2=O [Compound 79] (H-S[Nle]D[Nle]RCSASVECAQSCLKAIGSIFGKCMNKKCKCYPR-NH2; disulfide 6-27, 12-32, 16-34) | 0.13 | > 3000 | >14600 | 1150 | 0.21 | > 3000 | – | >14600 | – | – | – | – | – | – |
| CCCC[C@@H]1NC(=O)[C@@H]2CSSC[C@H](NC(=O)[C@H](CCCNC(=N)N)NC(=O)[C@H](CCCC)NC(=O)[C@H](CCC(=O)O)NC(=O)[C@@H](NC(=O)[C@@H]3CCCN3)[C@@H](C)CC)C(=O)N[C@@H](CO)C(=O)N[C@@H](C)C(=O)N[C@@H](CO)C(=O)N[C@@H](C(C)C)C(=O)N[C@@H](CCC(=O)O)C(=O)N[C@H]3CSSC[C@H](NC(=O)[C@H](CCCCN)NC(=O)[C@H](CCCCN)NC(=O)[C@H](CC(N)=O)NC1=O)C(=O)N[C@@H](CCCCN)C(=O)N[C@H](C(=O)N[C@@H](Cc1ccc(O)cc1)C(=O)N1CCC[C@H]1C(=O)N[C@@H](CCCNC(=N)N)C(=O)O)CSSC[C@H](NC(=O)[C@H](CCCCN)NC(=O)[C@H](CCC(N)=O)NC(=O)[C@H](CCCCN)NC3=O)C(=O)N[C@@H](CC(C)C)C(=O)N[C@@H](CCCCN)C(=O)N[C@@H](C)C(=O)N[C@@H]([C@@H](C)CC)C(=O)NCC(=O)N[C@@H](CO)C(=O)N[C@@H]([C@@H](C)CC)C(=O)N[C@@H](Cc1ccccc1)C(=O)NCC(=O)N[C@@H](CCCCN)C(=O)N2 [Compound 96] (H-PIE[Nle]RCSASVECKQKCLKAIGSIFGKC[Nle]NKKCKCYPR-OH; disulfide 6-27, 12-32, 16-34) | – | – | – | – | – | – | – | – | 0.15 | > 3000 | 1760 | 0.39 | > 3000 | – |
| CCCC[C@@H]1NC(=O)[C@@H]2CSSC[C@H](N)C(=O)N[C@@H](CO)C(=O)N[C@@H](C)C(=O)N[C@@H](CO)C(=O)N[C@@H](C(C)C)C(=O)N[C@@H](CCC(=O)O)C(=O)N[C@H]3CSSC[C@H](NC(=O)[C@H](CCCCN)NC(=O)[C@H](CCCCN)NC(=O)[C@H](CC(N)=O)NC1=O)C(=O)N[C@@H](CCCCN)C(=O)N[C@H](C(=O)N[C@@H](Cc1ccc(O)cc1)C(=O)N1CCC[C@H]1C(=O)N[C@@H](CCCNC(=N)N)C(N)=O)CSSC[C@H](NC(=O)[C@H](CCCCN)NC(=O)[C@H](CCC(N)=O)NC(=O)[C@H](CCCCN)NC3=O)C(=O)N[C@@H](CC(C)C)C(=O)N[C@@H](CCCCN)C(=O)N[C@@H](C)C(=O)N[C@@H]([C@@H](C)CC)C(=O)NCC(=O)N[C@@H](CO)C(=O)N[C@@H]([C@@H](C)CC)C(=O)N[C@@H](Cc1ccccc1)C(=O)NCC(=O)N[C@@H](CCCCN)C(=O)N2 [Compound 104] (H-CSASVECKQKCLKAIGSIFGKC[Nle]NKKCKCYPR-NH2; disulfide 1-22, 7-27, 11-29) | 0.12 | > 3000 | >7000 | > 3000 | 0.43 | > 3000 | – | >7000 | – | – | – | – | – | >7000 |
| CC[C@H](C)[C@@H]1NC(=O)[C@H](C)NC(=O)[C@H](CCCCN)NC(=O)[C@H](CC(C)C)NC(=O)[C@@H]2CSSC[C@@H](C(=O)N[C@@H](Cc3ccc(O)cc3)C(=O)N3CCC[C@H]3C(=O)N[C@@H](CCCNC(=N)N)C(=O)O)NC(=O)[C@H](CCCCN)NC(=O)[C@@H]3CSSC[C@H](NC(=O)[C@H](CCC(=O)O)NC(=O)[C@H](C(C)C)NC(=O)[C@H](CO)NC(=O)[C@H](C)NC(=O)[C@H](CO)NC(=O)[C@@H](N)CSSC[C@H](NC(=O)[C@H](CCCCN)NC(=O)CNC(=O)[C@H](Cc4ccccc4)NC(=O)[C@H]([C@@H](C)CC)NC(=O)[C@H](CO)NC(=O)CNC1=O)C(=O)N[C@@H](CCSC)C(=O)N[C@@H](CC(N)=O)C(=O)N[C@@H](CCCCN)C(=O)N[C@@H](CCCCN)C(=O)N3)C(=O)N[C@@H](CCCCN)C(=O)N[C@@H](CCC(N)=O)C(=O)N[C@@H](CCCCN)C(=O)N2 [Compound 117] (H-CSASVECKQKCLKAIGSIFGKCMNKKCKCYPR-OH; disulfide 1-22, 7-27, 11-29) | 1.5 | > 3000 | >1400 | 1830 | 2.09 | > 3000 | – | >1400 | – | – | – | – | – | – |
